The results in this text go back to patent publication US9393221B2, “Methods and compounds for reducing intracellular lipid storage” (THE GENERAL HOSPITAL CORPORATION, priority 2011, dated 2016).

Structures can show the parent of a compound that is named as a salt. Square brackets hold non-standard residues; d marks the D form. Peptide text beside a SMILES is read from it. * marks the point of attachment. Sta = CC(C)C[C@H](N)[C@@H](O)CC(=O)O; Isovaleryl = CC(C)CC(=O)*

One test relates to ATGL-KO iPSCs. Description: High throughput iPSC chemical screening, Oil Red O (ORO) lipid accumulation. For Z-score: test concentration or dose not given here. The class given is cell-based, mouse.
Settings: not given
`CC(N)C(O)c1ccccc1` (stereo not shown) [Phenylpropanolamine hydrochloride] registered a Z-score of 0.2625.

In turn, `C[n+]1ccccc1/C=N/O` [Pralidoxime chloride] showed a Z-score of 1.281.

The same test, now with this note: glycolytic switch compounds.
As for `[H]/N=C(/N)N/C(=N/[H])NCCc1ccccc1` [Phenformin hydrochloride], the “Rank in normalized ORO score from screen” value is recorded as 524.

Regarding `CC(COc1ccccc1)N(CCCl)Cc1ccccc1` (stereo not shown) [Phenoxybenzamine hydrochloride], the “Rank in normalized ORO score from screen” value is listed as 702.

On to `O=c1[nH]c2ccccc2n1C1CCN(CCCC(c2ccc(F)cc2)c2ccc(F)cc2)CC1` [Pimozide], for which the “Rank in normalized ORO score from screen” value was 330.

In the case of `CCN1CCCC(OC(=O)C(c2ccccc2)c2ccccc2)C1` (stereo not shown) [Piperidolate hydrochloride], the “Rank in normalized ORO score from screen” value is on record as 449.

Take `CC(=O)[C@H]1CC[C@H]2[C@@H]3CC=C4C[C@@H](O)CC[C@]4(C)[C@H]3CC[C@]12C` [Pregnenolone]: the “Rank in normalized ORO score from screen” value is recorded as 924.

The test is the same for the next values; noted with them: normalized ORO level vs DMSO-treated cells; compound present during 7 days differentiation, 96-well; negative = decrease in lipid accumulation.
As to `C[N+]1(CCCCC[N+]2(C)CCCC2)CCCC1.O=C([O-])C(O)C(O)C(=O)O.O=C([O-])C(O)C(O)C(=O)O` [Pentolinium bitartrate], the Z-score is on record as −0.9629.

In turn, `CC(=O)CCCCn1c(=O)c2c(ncn2C)n(C)c1=O` [Pentoxifylline] showed a Z-score of −1.1547.

On to `C1CCc2nnnn2CC1` [Pentylenetetrazole], for which the Z-score stood at 0.6653.

In turn, `CC(C)CC(=O)N[C@H](C(=O)N[C@H](C(=O)N[C@@H](CC(C)C)[C@@H](O)CC(=O)N[C@@H](C)C(=O)N[C@@H](CC(C)C)[C@@H](O)CC(=O)O)C(C)C)C(C)C` [Pepstatin A] (Isovaleryl-VV[Sta]A[Sta]-OH) displayed a Z-score of 1.261.

As for `CCCN1C[C@H](CSC)C[C@@H]2c3cccc4[nH]cc(c34)C[C@H]21` [Pergolide mesylate], the Z-score was −0.3289.

The compound `OCCN1CCN(CCCN2c3ccccc3Sc3ccc(Cl)cc32)CC1` [Perphenazine] came in with a Z-score of −1.5218.

On to `CCOc1ccc(NC(C)=O)cc1` [Phenacetin], for which the Z-score came to 0.5.

Turning to `Nc1ccc(/N=N/c2ccccc2)c(N)n1` [Phenazopyridine hydrochloride], the Z-score is listed as −0.2483.

In the case of `NNCCc1ccccc1` [Phenelzine sulfate], the Z-score is 0.6672.

`CC(Oc1ccccc1)C(=O)N[C@@H]1C(=O)N2[C@@H]1SC(C)(C)[C@@H]2C(=O)O` (stereo partly shown) [Phenethicillin potassium salt] came in with a Z-score of −0.0851.

For the compound `[H]/N=C(/N)N/C(=N/[H])NCCc1ccccc1` [Phenformin hydrochloride], the Z-score is −0.2777.

`O=C1c2ccccc2C(=O)C1c1ccccc1` [Phenindione] had a Z-score of 0.2654.

Compound `CN(C)CCC(c1ccccc1)c1ccccn1` (stereo not shown) [Pheniramine maleate] gave a Z-score of 0.3153.

Take `CC(COc1ccccc1)N(CCCl)Cc1ccccc1` (stereo not shown) [Phenoxybenzamine hydrochloride]: the Z-score worked out at 0.2031.

For the compound `CN1C(=O)CC(c2ccccc2)C1=O` (stereo not shown) [Phensuximide], the Z-score is recorded as 0.02844.

Turning to `Cc1ccc(N(CC2=NCCN2)c2cccc(O)c2)cc1` [Phentolamine hydrochloride], the Z-score turned out to be 0.3245.

For `O=C(O)c1ccccc1C(=O)Nc1ccc(S(=O)(=O)Nc2nccs2)cc1` [Phthalylsulfathiazole], the Z-score was −1.0074.

`COc1ccc(C(=O)NCc2cccnc2)cc1C(=O)NCc1cccnc1` [Picotamide monohydrate]: the Z-score is recorded as −1.2123.

For `C=C(C)[C@@H]1[C@H]2OC(=O)[C@@H]1[C@]1(O)C[C@H]3O[C@]34C(=O)O[C@H]2[C@]14C` [Picrotoxinin], the Z-score is −0.1703.

For the compound `CC[C@@H]1C(=O)OC[C@@H]1Cc1cncn1C` [Pilocarpine nitrate], the Z-score is recorded as −0.2819.

`CN1CCC(=C2c3ccccc3Sc3ccccc32)CC1` [Pimethixene maleate]: the Z-score is on record as −0.4872.

In turn, `O=c1[nH]c2ccccc2n1C1CCN(CCCC(c2ccc(F)cc2)c2ccc(F)cc2)CC1` [Pimozide] displayed a Z-score of −0.7483.

As to `CC(N/C(=N\C#N)Nc1ccncc1)C(C)(C)C` (stereo not shown) [Pinacidil], the Z-score is reported as 0.3162.

As for `CC(C)NCC(O)COc1cccc2[nH]ccc12` (stereo not shown) [Pindolol], the Z-score is listed as 0.03656.

`CCn1cc(C(=O)O)c(=O)c2cnc(N3CCNCC3)nc21` [Pipemidic acid] displayed a Z-score of −1.4165.

On to `CC[N+]1(C)CCCC(OC(=O)C(O)(c2ccccc2)c2ccccc2)C1` (stereo not shown) [Pipenzolate bromide], for which the Z-score is on record as −1.06.

Consider `CC(=O)c1ccc2c(c1)N(CCCN1CCC(CCO)CC1)c1ccccc1S2` [Piperacetazine], for which the Z-score was −0.4798.

The compound `CCN1CCN(C(=O)N[C@@H](C(=O)N[C@@H]2C(=O)N3[C@@H]2SC(C)(C)[C@@H]3C(=O)O)c2ccccc2)C(=O)C1=O` [Piperacillin sodium salt] displayed a Z-score of −0.9149.

Consider `CCN1CCCC(OC(=O)C(c2ccccc2)c2ccccc2)C1` (stereo not shown) [Piperidolate hydrochloride], for which the Z-score is given as −0.4895.

`O=C(/C=C/C=C/c1ccc2c(c1)OCO2)N1CCCCC1` [Piperine] showed a Z-score of 1.588.

As for `COc1cc(/C=C/C(=O)N2CCC=CC2=O)cc(OC)c1OC` [Piperlongumine], the Z-score was 16.6479.

In the case of `NC(=O)CN1CCCC1=O` [Piracetam], the Z-score is 0.8038.

`CN1CCN(CC(=O)N2c3ccccc3C(=O)Nc3cccnc32)CC1` [Pirenzepine dihydrochloride] gave a Z-score of −1.096.

`NS(=O)(=O)c1cc(C(=O)O)cc(N2CCCC2)c1Oc1ccccc1` [Piretanide] returned a Z-score of 0.2521.

In turn, `c1cnc(N2CCN(Cc3ccc4c(c3)OCO4)CC2)nc1` [Piribedil hydrochloride] displayed a Z-score of −1.3522.

The compound `CCn1cc(C(=O)O)c(=O)c2cnc(N3CCCC3)nc21` [Piromidic acid] registered a Z-score of 0.2604.

The compound `CN1C(C(=O)Nc2ccccn2)=C(O)c2ccccc2S1(=O)=O` [Piroxicam] displayed a Z-score of 0.7254.

Turning to `CC(C)(C)C(=O)OCOC(=O)[C@@H]1N2C(=O)[C@@H](NC(=O)[C@H](N)c3ccccc3)[C@H]2SC1(C)C` [Pivampicillin], the Z-score is reported as −1.1929.

For `CC(C)(C)C(=O)OCOC(=O)[C@@H]1N2C(=O)[C@@H](/N=C/N3CCCCCC3)[C@H]2SC1(C)C` [Pivmecillinam hydrochloride], the Z-score is recorded as −0.219.

With `COc1cc([C@@H]2c3cc4c(cc3[C@H](O)[C@H]3COC(=O)[C@H]23)OCO4)cc(OC)c1OC` [Podophyllotoxin], the Z-score was found to be 46.4771.

The compound `CC(=O)Nc1ccc(OCC(O)CNC(C)C)cc1` (stereo not shown) [Practolol] displayed a Z-score of −0.3373.

For `CCCCOc1ccc(OCCCN2CCOCC2)cc1` [Pramoxine hydrochloride], the Z-score turned out to be 0.5195.

`O=C(C1CCCCC1)N1CC(=O)N2CCc3ccccc3C2C1` (stereo not shown) [Praziquantel] registered a Z-score of −0.5159.

For `COc1cc2nc(N3CCN(C(=O)c4ccco4)CC3)nc(N)c2cc1OC` [Prazosin hydrochloride], the Z-score is reported as 0.6597.

With `CCOC(=O)O[C@]1(C(=O)COC(=O)CC)CC[C@H]2[C@@H]3CCC4=CC(=O)C=C[C@]4(C)[C@H]3[C@@H](O)C[C@@]21C` [Prednicarbate], the Z-score is on record as −0.9408.

Compound `C[C@]12C=CC(=O)C=C1CC[C@@H]1[C@@H]2[C@@H](O)C[C@@]2(C)[C@H]1CC[C@]2(O)C(=O)CO` [Prednisolone] displayed a Z-score of −0.8986.

`C[C@]12C=CC(=O)C=C1CC[C@@H]1[C@@H]2C(=O)C[C@@]2(C)[C@H]1CC[C@]2(O)C(=O)CO` [Prednisone]: the Z-score was 0.05393.

`CC(=O)[C@H]1CC[C@H]2[C@@H]3CC=C4C[C@@H](O)CC[C@]4(C)[C@H]3CC[C@]12C` [Pregnenolone] came in with a Z-score of 1.076.

In the case of `CCCNC(C)C(=O)Nc1ccccc1C` (stereo not shown) [Prilocaine hydrochloride], the Z-score is recorded as −1.2624.

For the compound `COc1cc(NC(C)CCCN)c2ncccc2c1` (stereo not shown) [Primaquine diphosphate], the Z-score was 5.51.

In the case of `CCC1(c2ccccc2)C(=O)NCNC1=O` [Primidone], the Z-score was −0.0045.

In turn, `CCCC(C(=O)OCCN(CC)CC)(c1ccccc1)c1ccccc1` [Proadifen hydrochloride] showed a Z-score of −1.1876.

In the case of `CCCN(CCC)S(=O)(=O)c1ccc(C(=O)O)cc1` [Probenecid], the Z-score was found to be 0.754.

The compound `CC(C)(Sc1cc(C(C)(C)C)c(O)c(C(C)(C)C)c1)Sc1cc(C(C)(C)C)c(O)c(C(C)(C)C)c1` [Probucol] yielded a Z-score of 1.626.

In the case of `CCN(CC)CCNC(=O)c1ccc(N)cc1` [Procainamide hydrochloride], the Z-score is −0.2319.

With `CCN(CC)CCOC(=O)c1ccc(N)cc1` [Procaine hydrochloride], the Z-score is listed as −0.5215.

In turn, `CNNCc1ccc(C(=O)NC(C)C)cc1` [Procarbazine hydrochloride] showed a Z-score of 1.675.

Consider `CN1CCN(CCCN2c3ccccc3Sc3ccc(Cl)cc32)CC1` [Prochlorperazine dimaleate], for which the Z-score was found to be 1.82.

Compound `OC(CCN1CCCC1)(c1ccccc1)C1CCCCC1` (stereo not shown) [Procyclidine hydrochloride] returned a Z-score of −0.6071.

For the compound `CC(=O)[C@H]1CC[C@H]2[C@@H]3CCC4=CC(=O)CC[C@]4(C)[C@H]3CC[C@]12C` [Progesterone], the Z-score is reported as 2.344.

Compound `CCCN(CCC)C(=O)C(CCC(=O)O)NC(=O)c1ccccc1` (stereo not shown) [Proglumide] registered a Z-score of 0.1235.

On to `[H]/N=C(\N/C(=N/[H])Nc1ccc(Cl)cc1)NC(C)C` [Proguanil hydrochloride], for which the Z-score was found to be 16.0329.

For the compound `CN(C)CCCN1c2ccccc2Sc2ccccc21` [Promazine hydrochloride], the Z-score is given as 0.01386.

`CC(CN1c2ccccc2Sc2ccccc21)N(C)C` (stereo not shown) [Promethazine hydrochloride]: the Z-score was −1.4251.

On to `CC(C)NCC(O)c1ccc2ccccc2c1` (stereo not shown) [Pronethalol hydrochloride], for which the Z-score is −0.9002.

In turn, `CCCNCC(O)COc1ccccc1C(=O)CCc1ccccc1` (stereo not shown) [Propafenone hydrochloride] came in with a Z-score of −0.6438.

In turn, `CC(C)[N+](C)(CCOC(=O)C1c2ccccc2Oc2ccccc21)C(C)C` [Propantheline bromide] had a Z-score of −0.9862.

For `CCCOc1ccc(C(=O)OCCN(CC)CC)cc1N` [Proparacaine hydrochloride], the Z-score was 0.9367.

As for `CC[N+](C)(CC)CCC[n+]1c(-c2ccccc2)c2cc(N)ccc2c2ccc(N)cc21.[I-].[I-]` [Propidium iodide], the Z-score was found to be 4.014.
